Our source for the LC retention time values is the RepoRT retention time repository.

Each structure is given as a SMILES string.

This data set can be described thus: RP, Waters ACQUITY UPLC BEH C18, 50 × 2.1 mm, 1.7 µm, 40 °C, 0.6 mL/min, estimated dead time 0.18 min; A: water + 0.1% formic acid, pH 3; B: acetonitrile + 0.1% formic acid, pH 3; gradient (min/%B) 0/5 7/100 8/100. The conditions noted are these: stereoisomer not certain.

Turning to `CC(=O)OC(C)(C)/C=C/C(=O)[C@](C)(O)[C@H]1[C@H](O)C[C@@]2(C)[C@@H]3CC=C4C(C=C(O)C(=O)C4(C)C)[C@]3(C)C(=O)C[C@]12C` (some centres undefined), the LC retention time was 3.63 min.

On to `CC1=CC(C2OC3CCCN4C(C5CC(C)C(=O)O5)CCC4C3C2C)OC1=O` (centres undefined), for which the LC retention time is 1.27 min.

As to `COc1c(O)cc(-c2oc3cc(O)cc(O)c3c(=O)c2O[C@@H]2O[C@@H](C)[C@H](O)[C@@H](O)[C@H]2O)cc1O`, the LC retention time was 0.287 min.

Consider `C/C=C/C(=O)CC1C(=O)C=CC1(CCCCCCCC(=O)O)OC(C)=O` (centres undefined), for which the LC retention time was 2.74 min.

Turning to `CCC(C)C(=O)C1=C(O)C2(CC=C(C)C)CC(CCC(C)(C)OC(=O)C(F)(F)F)C(C)(C)C(C(CC(=O)O)c3ccccc3)=C2OC1=O` (centres undefined), the LC retention time was 6.11 min.

For the molecule `CC(=O)OC(CCc1ccccc1)Cc1cc(=O)c2c(o1)OC1(C)CCC(C(C)C)C2C1` (centres undefined), the LC retention time was 4.97 min.

For `C/C=C/C(CC1C(=O)C=CC1(O)CCCCCCCC(=O)O)OC(C)=O` (centres undefined), the LC retention time was 2.88 min.

Regarding `COc1c(O)c(OC)c(C(=O)C2CC=C(CCC=C(C)C)CC2c2ccccc2)c(O)c1OC` (centres undefined), the LC retention time is 5.76 min.

For `O=C1c2c(O)cc(O)c(C3C(=O)c4c(O)cc(O)cc4OC3c3ccc(O)cc3)c2OC(c2ccc(O)cc2)C1O` (centres undefined), the LC retention time is 1.54 min.

`CCCCCCCCCCCCCC(=O)OC12CC(C)C3(O)C(C4OC4(CO)C(O)C4(O)C(=O)C(C)=CC43)C1C2(C)C` (centres undefined): the LC retention time was 6.55 min.

Turning to `C/C=C1/CN(C)C[C@H]2Cc3c([nH]c4ccccc34)C(=O)C[C@@H]12`, the LC retention time was 1.62 min.

For the molecule `COC(=O)C1=COC(C)C2CN3CCC4(C(=O)Nc5ccccc54)C3CC12` (centres undefined), the LC retention time is 1.69 min.

With `O=C(c1ccc(O)cc1O)[C@H]1[C@H](C(=O)c2ccc(O)cc2O)[C@H](c2ccc(O)cc2)O[C@@H]1c1ccc(O)cc1`, the LC retention time is 2.81 min.

Regarding `Cn1c(Cc2ccccc2)nc(=O)c2ccccc21` [2-benzyl-1-methyl-1,4-dihydroquinazolin-4-one], the LC retention time was 1.8 min.

In the case of `COc1cc2c(cc1O)C(Cc1ccc(OC3=CC4(C=CC3=O)CC3c5c(cc(OC)c(OC)c54)CCN3C)cc1)N(C)CC2` (centres undefined), the LC retention time is 1.59 min.

`COc1cc(CC(CO)C(CO)Cc2ccc(O)c(OC)c2)ccc1O` (centres undefined) [2,3-bis[(4-hydroxy-3-methoxyphenyl)methyl]butane-1,4-diol]: the LC retention time is 0.28 min.

For the molecule `C=CCc1ccc(O)c(-c2ccc(O)c(CC=C)c2)c1` [3',5-bis(prop-2-en-1-yl)-[1,1'-biphenyl]-2,4'-diol], the LC retention time is 3.18 min.

Consider `COc1ccc(C(=O)[C@@H](c2coc3cc(O)ccc3c2=O)C(c2ccc(O)cc2)c2ccc(O)cc2)c(O)c1`, for which the LC retention time is 3.14 min.

As for `C[C@@H]1O[C@@H](Oc2c(-c3ccc(O)c(O)c3)oc3cc(O)cc(O)c3c2=O)[C@H](O)[C@H](O)[C@H]1O`, the LC retention time was 0.266 min.

With `C=C(C(=O)C(OC(C)=O)C(C)C1C(OC(C)=O)CC2(C)C3C4OC4C4C(C)C(=O)C=CC45CC35CCC12C)C(C)CO` (centres undefined), the LC retention time is 3.48 min.

Consider `COc1ccc(-c2cc(=O)c3c(O)cc(O)cc3o2)cc1-c1c(O)cc(O)c2c(=O)cc(-c3ccc(O)cc3)oc12`, for which the LC retention time is 3.1 min.

Turning to `COc1cc2c(cc1OC)-c1c3c(cc4c1C(C2)N(C)CC4)OCO3` (centres undefined), the LC retention time was 1.84 min.

As for `COc1ccc(-c2oc3cc(O)c(OC)c(O)c3c(=O)c2OC)cc1O`, the LC retention time was 2.2 min.

For `CCCCCCCCCCCC(=O)OC12CC(C)C3(O)C(C4OC4(CO)C(O)C4(O)C(=O)C(C)=CC43)C1C2(C)C` (centres undefined), the LC retention time was 5.96 min.

As for `COc1cc(/C=C/C(=O)OCC(Cc2ccc(O)c(OC)c2)C(COC(C)=O)Cc2ccc(O)c(OC)c2)ccc1O` (centres undefined), the LC retention time was 2.3 min.

As to `CC1(C)CCC[C@]2(CO)C1CC[C@@]13C[C@@H](CCC12)[C@@](O)(COC(=O)/C=C/c1ccc(O)c(O)c1)C3` (some centres undefined), the LC retention time is 3.4 min.

Consider `CC(C)=CCc1c(O)cc2oc(-c3ccc(O)cc3)c(O)c(=O)c2c1O`, for which the LC retention time is 3.98 min.

`C/C=C(/C)C(=O)OC1CCC2CC3(O)OC(=O)C(C)=C3CC2(C)C1C` (centres undefined): the LC retention time was 4.16 min.

In the case of `CC(C)=CCC1CC23CC(CC=C(C)C)C(C)(C)C(CC=C(C)C)(C(=O)C(C(=O)c4ccc(O)c(O)c4)=C2OC1(C)C)C3=O` (centres undefined), the LC retention time was 5.93 min.

Turning to `C=C(C(=O)C(OC(C)=O)C(C)C1C(OC(C)=O)CC2(C)C3CCC4C(C)C(=O)C=CC45CC35CCC12C)C(C)C` (centres undefined), the LC retention time is 5.46 min.

Take `COC1=CC(=O)C2(c3cc(=O)c4c(O)cc(O)cc4o3)C(CC=C(C)C2C[C@@]2(O)C(C)(O)CC[C@H]3C(C)(C)C[C@H](O)C[C@@]32C)C1=O` (some centres undefined): the LC retention time is 1.09 min.

With `C[C@@H]1O[C@H](O[C@@H]2[C@@H](O)[C@H](OCCc3ccc(O)c(O)c3)O[C@H](CO)[C@H]2OC(=O)/C=C/c2ccc(O)c(O)c2)[C@H](O)[C@H](O)[C@H]1O`, the LC retention time was 0.258 min.

On to `CCCCCCCCCCCCC[C@@H]1CCC[C@@H](C)N1` [(2R,6R)-2-methyl-6-tridecylpiperidine], for which the LC retention time is 4.58 min.

Regarding `C=C1CC23CCC4C(C)(C(=O)O)CCCC4(C)C2CCC1C3` (centres undefined), the LC retention time was 5.69 min.

As for `CC12CCCc3coc(c31)C(=O)c1cc3c(cc12)C(=O)C=CC3=O` (centres undefined), the LC retention time is 2.6 min.

Consider `CC[C@@]12CC(C(=O)OC)=C3Nc4ccccc4[C@@]34CCN(C[C@H]3O[C@H]31)C24` (some centres undefined), for which the LC retention time is 1.96 min.

Turning to `Cc1coc2c1C(=O)C(=O)c1c-2ccc2c(C)cccc12` [1,6-dimethyl-10H,11H-phenanthro[1,2-b]furan-10,11-dione], the LC retention time was 3.42 min.

On to `COC1C2(O)COC3=CC(=O)C=CC31c1cc(O)c(O)cc1C2` (centres undefined), for which the LC retention time was 1.08 min.

In the case of `COc1cc(/C=C/c2ccc(OCC=C(C)C)cc2)cc(OC)c1`, the LC retention time is 5.37 min.

`C[C@@H]1CC2(N=CCS2)[C@]2(O)OC3C[C@@]4(C=O)C(CCC5C4CC[C@]4(C)C(C6=CC(=O)OC6)CC[C@]54O)CC3OC2O1` (some centres undefined): the LC retention time is 0.662 min.

For the molecule `Cn1c(-c2ccc3c(c2)OCO3)cc(=O)c2ccccc21`, the LC retention time was 2.43 min.

On to `C[C@@H]1CC2(NCCS2)[C@]2(O)OC3C[C@@]4(C=O)C(CCC5C4CC[C@]4(C)C(C6=CC(=O)OC6)CC(O)[C@]54O)CC3OC2O1` (some centres undefined), for which the LC retention time is 0.365 min.

Turning to `CC(C)=CCCC(C)=CCC1=Cc2c(O)c3c(c(CC=C(C)C)c2OC1O)OC12C(=CC4CC1C(C)(C)OC2(CC=C(C)C(=O)O)C4=O)C3=O` (centres undefined), the LC retention time is 6.07 min.

In the case of `COc1cc2c3cc1Oc1c(cccc1OC)CC1c4c(cc(O)c(OC)c4Oc4cccc(c4)CC3N(C)CC2)CCN1C` (centres undefined), the LC retention time is 1.59 min.

As to `C=C(CO)C(=O)OC1CC(=C)C2CC(O)C(=C)C2C2OC(=O)C(=C)C12` (centres undefined), the LC retention time is 2.16 min.

Consider `C=C1[C@@H](O)C[C@H]2[C@](C)(CO)CCC[C@]2(C)[C@H]1CC1C(C)=CCC2C(=O)C(OC)=CC(=O)C21c1cc(=O)c2c(O)cc(O)cc2o1` (some centres undefined), for which the LC retention time was 3.02 min.

As for `COc1c(O)c(C(=O)C2CC=C(CCC=C(C)C)CC2c2ccccc2)c(OC)c(OC)c1OC` (centres undefined), the LC retention time is 5.69 min.

`C=C(C)C(CC=C(C)C)Cc1c(O)cc(OC)c2c1OC(c1ccc(O)cc1O)CC2=O` (centres undefined): the LC retention time was 4.6 min.

In the case of `CC(=O)OC(C)(C)C=CC(=O)C(C)(O)C1C(O)CC2(C)C3CC=C4C(=COC(=O)C4(C)C)C3(C)C(=O)CC12C` (centres undefined), the LC retention time is 3.14 min.

Take `COc1cc(O)ccc1CCC(c1ccc(O)cc1)c1cc(CCC(=O)c2ccc(O)cc2)c(O)cc1O` (centres undefined): the LC retention time is 2.1 min.

For `CCCCCCCCC/C=C\CCCC[C@@H]1CCC[C@@H](C)N1` [(2R,6R)-2-methyl-6-[(5Z)-pentadec-5-en-1-yl]piperidine], the LC retention time is 4.68 min.

Turning to `CCC(C)C(=O)C1=C(O)C2(CC=C(C)C)CC(CC=C(C)C)C(C)(C)C(C(CC(=O)O)c3ccccc3)=C2OC1=O` (centres undefined), the LC retention time is 6.36 min.

As to `O=C(/C=C/c1ccc(O)cc1)OC[C@H]1O[C@@H](Oc2cc(O)c3c(=O)cc(-c4ccc(O)cc4)oc3c2)[C@H](OC(=O)/C=C/c2ccc(O)cc2)[C@@H](O)[C@@H]1O`, the LC retention time was 3.15 min.

For the molecule `COC(=O)C1=COC(OC2OC(CO)C(O)C(O)C2O)C2C(O)CN3CCc4c([nH]c5ccccc45)[C@@H]3CC12` (some centres undefined), the LC retention time is 1.29 min.

`COc1cc2c(cc1O)CC1NCCc3cc(OC)c(OC)c-2c31` (centres undefined): the LC retention time is 1.58 min.

As to `CC1CC2CC(=O)C3CCCN4CCCC2C34C1` (centres undefined), the LC retention time was 1.06 min.

For the molecule `C=C(CO)C(=O)OC1CC(=C)C2CC(=O)C(C)C2C2OC(=O)C(=C)C12` (centres undefined), the LC retention time was 3.08 min.

Take `COc1cc2c3cc1Oc1c(cccc1OC)CC1c4c(cc(OC)c(OC)c4Oc4cccc(c4)CC3N(C)CC2)CCN1C` (centres undefined): the LC retention time is 1.7 min.

With `COc1ccc([C@@]23Oc4cc5c(c(OC)c4[C@]2(O)[C@H](O)[C@H](C(=O)N(C)C)[C@H]3c2ccccc2)OCO5)cc1`, the LC retention time is 3.26 min.

Turning to `CCCCCCCCCCCCO[C@@H]1O[C@@H](C)[C@H](O[C@@H]2O[C@@H](C)[C@H](OC(C)=O)[C@@H](O[C@@H]3O[C@@H](C)[C@H](OC(C)=O)[C@@H](O[C@@H]4O[C@@H](C)[C@H](OC(C)=O)[C@@H](OC(C)=O)[C@H]4O)[C@H]3OC(C)=O)[C@H]2O)[C@@H](O)[C@H]1O`, the LC retention time was 6.09 min.

On to `C[C@@H]1CC2(N=CCS2)[C@]2(O)OC3C[C@@]4(C=O)C(CCC5C4CC[C@]4(C)C(C6=CC(=O)OC6)CC(O)[C@]54O)CC3OC2O1` (some centres undefined), for which the LC retention time is 0.41 min.

With `CCCCCCCCCCCCCCC(O)C(O)CCC(O)C1CCC(CCCCCC(O)CC2=CC(C)OC2=O)O1` (centres undefined), the LC retention time is 6.01 min.

Consider `C=C1C(=O)C23C(O)CC4C(C)(C)CCCC4(COC(C)=O)C2C(O)CC1C3O` (centres undefined), for which the LC retention time is 2.42 min.

In the case of `CC[C@H]1NC2C[C@@]3(C(=O)N(OC)c4ccccc43)C3CC1C2CO3` (some centres undefined), the LC retention time was 1.79 min.
